Read-outs that look alike come from different tables or passages of the source.
Legend:
[1] = system: L. donovani amastigotes; experiment: Inhibitory assay against intracellular L. donovani amastigotes in Raw 264.7 macrophages (resazurin); format: cell-based; conditions: Leishmania donovani, RAW264.7, isolated compounds, mean ± SD
Description: The effect of plant isolates against the intracellular amastigote form of L. donovani was evaluated essentially as described by Jain et al. with some modifications. Briefly, macrophage Raw 264.7 cells ([…]) were seeded in 96 well plates and incubated for 6 h at 37 °C under 5% CO2 for adhesion of the cells. Afterwards, the non-adherent cells were washed-out with sterile PBS. The adherent Raw 264.7 cells were infected with metacyclic promastigotes (4 × 10^5 cells) at an infection ratio of 1:10 macrophage: parasites and incubated for 24 h at 37 °C under 5% CO2 in order to allow infection of macrophages by metacyclic promastigotes. Thereafter, the overlying medium was removed, and the monolayer cells with internalized amastigotes were carefully washed four times with PBS to remove free parasites. Freshly prepared M199 medium containing 10% FBS and the test extracts were added in triplicate to the infected cells at serially diluted concentrations and incubated for 48 h at 37 °C under 5% CO2. After incubation, 0.05% Sodium dodecyl sulfate (SDS) was added in each well for 30 s for controlled lysis followed by M199 with 10% FBS as macrophage lysis stopper. Resazurin reagent (250 μg/mL) was thereafter added in each well and the plates were incubated for 24 h followed by fluorescence recording at λexcitation = 530 nm and λemission = 590 nm using a Tecan Infinite M200 microplate reader (Tecan). Inhibition percentages were calculated using Microsoft Excel Software and median inhibitory concentration (IC50) obtained from dose-response curves using GraphPad Prism 5.0. Software.

[2] = in vitro; conditions: mouse
Description: The cytotoxicity profile of extracts, fractions and compounds was assessed using the Alamar blue assay against Raw 264.7 cells duly cultivated in complete Dulbecco’s Modified Eagle’s Medium (DMEM) containing 13.5 g/L DMEM (Sigma Aldrich), 10% fetal Bovine Serum (Sigma Aldrich), 0.2% sodium bicarbonate (w/v) (Sigma, Darmstadt, Germany) and 50 μg/mL gentamycin (Sigma Aldrich). Globally, macrophages were seeded into 96-wells cell-culture flat-bottomed plates at a density of 10^4 cells in final volume of 100 μL of complete medium/well and incubated for 24 h at 37 °C, 5% CO2, 70% RH in a ICO 105 memmert incubator (memmert, Schwabach, Germany) to allow cell adhesion. Ten μL of each serially diluted test sample were added in triplicate wells and assay plates were then incubated for 48 h in the same experimental conditions. Growth control consisted of 0.1%DMSO (100% growth) and positive control of podophyllotoxin (Sigma, Darmstadt, Germany) at 20 μM. Cell proliferation was checked by adding 10 μL of a stock solution of resazurin (0.15 mg/mL in sterile PBS) to each well followed by plates incubation during 4 h. Fluorescence was then read on a Tecan Infinite M200 fluorescence multi-well plate reader at an excitation/emission of 530/590 nm. […] Selectivity indices (CC50/IC50, defining the balance between cytotoxicity and antileishmanial activity) were calculated for each test substance.

[3] = system: L. donovani promastigotes (MHOM/SD/62/1S); experiment: Inhibitory assay against L. donovani promastigotes (resazurin colorimetric assay); format: cell-based; conditions: Leishmania donovani, mean ± SD, triplicate
Description: The cryopreserved promastigote form of L. donovani (1S (MHOM/SD/62/1S) was obtained from Bei Resources (https://www.beiresources.org/) and is routinely cultured at the Antimicrobial and Biocontrol Agents Unit, University of Yaoundé I, in Medium 199 (Sigma, Darmstadt, Germany) supplemented with 10% Heat-Inactivated fetal Bovine Serum (HIFBS) (Sigma, Darmstadt, Germany) and 100 IU/mL penicillin and 100 μg/mL streptomycin. The culture was maintained in 75 Cm^2 cell culture flask at 28 °C and checked for growth daily and sub-cultured everyday 72 h.
The stock solutions were prepared by dissolving each sample in 100% dimethyl sulfoxide (DMSO) and subsequently diluted serially in non-supplemented culture medium. […] The viability rate of promastigotes positively correlated with the amount of pink resorufin that was produced through the reduction of blue resazurin by the dehydrogenase enzymes in the inner mitochondrial membrane of the living parasites. Briefly, promastigotes from a logarithmic phase culture (4 × 10^5 cells/mL; 90 μL) were seeded in 96-well microtiter plates and were treated with 10 μl of inhibitors at different triplicate concentrations ranging 100 μg/mL-0.16 μg/mL for extracts and fractions and 50 μg/mL-0.08 μg/mL for compounds. The final concentration of DMSO in each well was not higher than 1%. Plates were incubated for 28 h at 28 °C, followed by the addition of 1 mg/mL resazurin (Sigma, Darmstadt, Germany). […] After an additional incubation for 44 h, plates were then read on a Magelan Infinite M200 fluorescence multi-well plate reader (Tecan, Männedorf, Switzerland) at an excitation and emission wave lengths of 530 and 590 nm respectively.

[4] = system: L. donovani promastigotes; experiment: Concentration/time inhibition (kill) kinetics, trypan blue counting; format: cell-based, Leishmania donovani
Description: The number of viable parasites was determined after every 24 h over 120 h by staining with trypan blue. Quantification of viable parasites was achieved by counting the parasites with clear cytoplasm (non-stained) using a Neubauer hemocytometer with cover slips. Three independent experiments were performed for each sample.

[5] = isolated compounds, read-out: IC50 (Promastigotes)

OC1CC(O)C(O)C(O)C1O (centres unmarked) [1-deoxyinositol (7), 1-deoxyinositol]
IC50 [1]: 120 ± 0.18 µM | CC50 [2]: > 1220 µM | IC50 [3, 5]: 241.71 ± 0.16 µM

C[C@@H]1[C@H](O)[C@@H](C)/C=C/C=C/C=C/C=C/C=C/C=C/C=C/[C@H](O[C@@H]2O[C@H](C)[C@@H](O)[C@H](N)[C@@H]2O)C[C@@H]2O[C@](O)(C[C@@H](O)C[C@@H](O)[C@H](O)CC[C@@H](O)C[C@@H](O)CC(=O)O[C@H]1C)C[C@H](O)[C@H]2C(=O)O [Amphotericin B, reference compound]
Effect on promastigote replication / growth ([4]; 0.5x IC50, IC50, 2x IC50, 4x IC50, viable parasites counted every 24 h): significant reduction in promastigote replication after 24 h | Cidal effect ([4]; all tested concentrations, exposure up to 120 h): no evidence of cidal effect | IC50 ([3]; crude extracts, H20: EtOH, read-out: Promastigote of L. donovani (MHOM/SD/62/1S) IC50 ± SD): 0.34 ± 0.22 µg/mL | IC50 [3, 5]: 0.37 ± 0.22 µM | IC50 ([3]; trunk extract and fractions, read-out: IC50 (Promastigotes)): 0.34 ± 0.22 µg/mL

C=C(C)[C@@H]1CC[C@]2(C(=O)O)CC[C@]3(C)[C@H](CC[C@@H]4[C@@]5(C)CC[C@H](O)C(C)(C)[C@@H]5CC[C@]43C)[C@@H]12 [Betulinic acid (3), Betulinic acid]
IC50 [1]: 18.46 ± 0.01 µM | CC50 [2]: 82.39 ± 0.09 µM | IC50 [3, 5]: 13.69 ± 0.07 µM

C=C(C)[C@@H]1CC[C@]2(C)CC[C@]3(C)[C@H](CC[C@@H]4[C@@]5(C)CC[C@H](O)C(C)(C)[C@@H]5CC[C@]43C)[C@@H]12 [Lupeol (1), Lupeol]
IC50 [1]: 46.7 ± 0.65 µM | CC50 at 48 h ([2]; Raw 264.7 cells (macrophages)): 19.3 ± 0.3 µM | IC50 [3, 5]: 23.22 ± 0.08 µM

CCC(CCC(C)C1CCC2C3CC=C4CC(OC5OC(CO)C(O)C(O)C5O)CCC4(C)C3CCC12C)C(C)C [β-sitosterol glucoside (6), β-sitosterol 3-O-D-glucopyranoside]
IC50 [1]: 32 ± 0.22 µM | CC50 at 48 h [2]: 28.6 ± 0.07 µM | IC50 [3, 5]: 49.34 ± 0.12 µM

Source: PMC8011081, “Bio-guided isolation of anti-leishmanial natural products from Diospyros gracilescens L. (Ebenaceae)” (BMC Complementary Medicine and Therapies, 2021)
